What was measured:
[1] = system: β-glucuronidase in rat colon feces; experiment: Rat colon fecal homogenate stability assay; format: in vitro ADME; conditions: male, Sprague Dawley, rat colon fecal supernatant-homogenate; in vitro half-life of the prodrug in rat fecal supernatant-homogenate, anaerobic, 10 μM substrate; read-out: T½
Text: The compounds of the present invention contain a glucuronide prodrug moiety that is expected to be cleaved by β-glucuronidase enzyme to release a JAK inhibitor (e.g., ruxolitinib, baricitinib or oclacitinib). The objective of this assay was to determine the half-life for compounds of the present invention in the presence of β-glucuronidase in rat colon feces. Following sacrifice of a naïve male Sprague Dawley rat (˜300 g) by cardiac puncture exsanguination, the colon was ligated and removed to an anaerobic chamber (AS-580, Anaerobe Systems). The fecal content was removed within the chamber and was diluted 1:10 with phosphate buffer (1 gram fecal content to 9 mL phosphate buffer) and the resulting mixture was homogenized using a handheld Omni Tissue Master. The fecal homogenate was centrifuged at 2000 g for 10 min to remove bulk material and the supernatant was removed and used for the incubations. DMSO stock solutions (10 mM) of the test compounds and sulfasalazine (control) were prepared. Sulfasalazine was used as a positive control to confirm viability of the fecal supernatant-homogenate (see, e.g., Azad Khan et al., Clinical Science (1983) 64, 349-354). If the in vitro half-life (T½) for sulfasalazine in the fecal sample was less than 30 min, the fecal sample was deemed to be viable and in true anaerobic conditions. However, if the T½ for sulfasalazine was greater than 30 min, the fecal sample was typically contaminated with oxygen and was not viable. The final substrate concentration of each assay was 10 μM. Reactions were started by adding a 5 μL aliquot of diluted test compound stock solution into 300 μL of rat fecal supernatant-homogenate. At 0, 15, 50, 85 and 120 min post reaction initiation, a 50 μL aliquot was removed and added to a mixture of 200 μL of acetonitrile with 3% formic acid and an internal standard. All samples were centrifuged at 2000 g for 10 min after which 50 μL of supernatant was diluted into 150 μL of water for analysis on an LC-MS system. In vitro half-lives (T½) for the test compounds were calculated as follows: T½=0.693/elimination rate constant.

[2] = Oral pharmacokinetics in mouse assay; format: in vivo; conditions: liberated JAK inhibitor in colon tissue, AUC0-6 h, single PO dose 5 mg/kg of prodrug, male Balb/c mice
Protocol: When cleaved by β-glucuronidase enzyme, the compounds of the present invention release a JAK inhibitor (e.g., ruxolitinib, baricitinib or oclacitinib). The object of this assay was to determine JAK inhibitor exposure (AUC0-6 h) in colon tissue and plasma following oral dosing of compounds of the present invention in mice. Male Balb/c mice (n=2/time point) received a single PO oral gavage dose (5 mg/kg in 1:20 mixture of 5% DMSO and 1% HPMC) of the test compound. At 0.5, 2, 6 and 24 h post-dosing, mice were sacrificed via cardiac puncture exsanguination and blood samples were taken and placed into sample tubes (Microtainer, Becton, Dickinson and Company) containing sodium fluoride and then placed on ice. Plasma was obtained by centrifugation (Eppendorf centrifuge, 5804R) for 4 min at approximately 12,000 rpm at 4° C. The colons were removed from the exsanguinated mice and the colon fecal contents were gently removed. The colons were flushed with saline and patted dry. The colons were then homogenized in 3× volume of sterile water using a tissue homogenizer (Precellys homogenizer, Bertin Instruments) at approximately 4° C. All samples were stored at −80° C. for later bioanalysis. The concentration of JAK inhibitor (e.g., ruxolitinib, baricitinib or oclacitinib) in each sample was determined as follows: the plasma and colon homogenate samples were vortexed, combined with a 50 μL aliquot of rat plasma, extracted with 200 μL of ACN containing an internal standard and quantified against the internal standard by LC-MS. An area-under-the-concentration curve (AUC0-6 h) was calculated for plasma and colon test compound and liberated JAK inhibitor. A key parameter to assess suitability for localized delivery of the JAK inhibitor to the colon was the JAK inhibitor colon to plasma AUC ratio.

half-life at 10 μM [1] [min]	Colon AUC [2] [µg·h/g]	Structure (SMILES)
< 5	13.5	CNS(=O)(=O)C[C@H]1CC[C@H](N(C)c2ncnc3c2ccn3C(=O)N(C)CCN(C)C(=O)OCc2ccc(O[C@@H]3O[C@H](C(=O)O)[C@@H](O)[C@H](O)[C@H]3O)c([N+](=O)[O-])c2)CC1 [Compound VII-3, (2S,3S,4S,5R,6S)-3,4,5-Trihydroxy-6-(4-(((methyl(2-(N-methyl-4-(methyl((1r,4r)-4-((N-methylsulfamoyl)methyl)cyclohexyl)amino)-7H-pyrrolo[2,3-d]pyrimidine-7-carboxamido)ethyl)carbamoyl)oxy)methyl)-2-nitrophenoxy)tetrahydro-2H-pyran-2-carboxylic Acid]
< 5	7.4	CN(CCN(C)C(=O)n1ccc2c(-c3cnn([C@H](CC#N)C4CCCC4)c3)ncnc21)C(=O)OCc1ccc(O[C@@H]2O[C@H](C(=O)O)[C@@H](O)[C@H](O)[C@H]2O)c([N+](=O)[O-])c1 [Compound VII-1, (2S,3S,4S,5R,6S)-6-(4-((((2-(4-(1-((R)-2-Cyano-1-cyclopentylethyl)-1H-pyrazol-4-yl)-N-methyl-7H-pyrrolo[2,3-d]pyrimidine-7-carboxamido)ethyl)-(methyl)carbamoyl)oxy)methyl)-2-nitrophenoxy)-3,4,5-trihydroxytetrahydro-2H-pyran-2-carboxylic Acid]
< 5	17.3	CCS(=O)(=O)N1CC(CC#N)(n2cc(-c3ncnc4c3ccn4C(=O)N(C)CCN(C)C(=O)OCc3ccc(O[C@@H]4O[C@H](C(=O)O)[C@@H](O)[C@H](O)[C@H]4O)c([N+](=O)[O-])c3)cn2)C1 [Compound VII-2, (2S,3S,4S,5R,6S)-6-(4-((((2-(4-(1-(3-(Cyanomethyl)-1-(ethylsulfonyl)azetidin-3-yl)-1H-pyrazol-4-yl)-N-methyl-7H-pyrrolo[2,3-d]pyrimidine-7-carboxamido)ethyl)-(methyl)carbamoyl)oxy)methyl)-2-nitrophenoxy)-3,4,5-trihydroxytetrahydro-2H-pyran-2-carboxylic Acid]

— patent US10745405B2, “Glucuronide prodrugs of Janus kinase inhibitors” (THERAVANCE BIOPHARMA R&D IP, LLC, priority 2017, dated 2020)
